From patent US12083109B2, “Neurokinin antagonists and uses thereof” (California Institute of Technology, priority 2017, dated 2024)
“Also recorded” adds a separate entry of the source.

Experiments:
Nk3R [1] = target: T1, Nk3R (Mus musculus, UniProt P47937); assay: Shock reactivity (footshock) after tone test, osanetant; format: in vivo; set-up: from tissue; host or cells: Living mice (wild-type C57Bl6/N males, Charles River)
T1 sequence (P47937 1-452): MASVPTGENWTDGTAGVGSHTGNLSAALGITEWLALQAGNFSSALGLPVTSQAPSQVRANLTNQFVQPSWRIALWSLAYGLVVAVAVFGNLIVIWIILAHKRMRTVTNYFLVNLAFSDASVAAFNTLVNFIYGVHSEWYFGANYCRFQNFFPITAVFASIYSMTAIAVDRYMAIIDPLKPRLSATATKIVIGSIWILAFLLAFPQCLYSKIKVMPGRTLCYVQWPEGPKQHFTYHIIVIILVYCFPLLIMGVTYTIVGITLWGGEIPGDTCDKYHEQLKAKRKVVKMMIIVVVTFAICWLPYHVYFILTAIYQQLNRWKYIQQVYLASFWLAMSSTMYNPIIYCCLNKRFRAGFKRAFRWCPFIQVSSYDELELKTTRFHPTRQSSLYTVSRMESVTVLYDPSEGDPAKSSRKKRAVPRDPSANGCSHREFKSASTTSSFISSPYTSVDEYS
Description: The protocol for tone trace fear conditioning was performed as previously described (Cushman et al., 2014; incorporated by reference in its entirety) using fear conditioning boxes previously described in detail (Haubensak et al., 2010; Kunwar et al., 2015; incorporated by reference in their entirety). Briefly, mice were transported in squads of four on a white cart to a novel behavioral testing room containing 4 sound-attenuating fear-conditioning chambers (Med Associates). This “training context” was comprised of flat grid flooring (wired to a shock generator and scrambler for footshock delivery, Med Associates), houselights, and the presence of an internal fan for background noise. Chambers were sprayed with 70% Simple Green solution on the underlying chamber pan to generate a unique contextual scent and chambers were cleaned with 70% EtOH between squads. Trace fear conditioning consisted of a 3 minute baseline period followed by 3 tone-shock trials consisting of a 20 second tone conditional stimulus (CS; 75 dB, 2800 Hz), a 20 second trace interval and a 2 second footshock unconditional stimulus (US; 0.7 mA). The inter-trial interval (ITI) between trials was 60 seconds. Mice remained in the chambers an additional 60 seconds before being transported back to the vivarium. The following day, mice were transported in fresh cardboard boxes to a novel behavioral testing room consisting of 4 distinct fear-conditioning boxes to test for tone fear. The “test context” consisted of the houselights and fan turned off, uneven grid flooring, a 1% acetic acid scent and a black plastic insert used to generate a triangular roof. Testing was performed identical to training with the exception that shocks were omitted from test trials to allow for behavior assessment to the tone. A single shock was administered in the last minute of testing to assess activity burst responding to the shock. This allowed assessment of reactivity to the shock under our various manipulations performed during testing without disrupting fear acquisition by performing manipulations during training. All experimental manipulations and data shown herein were performed during the test phase of fear conditioning (training data not shown). Training and testing context were counterbalanced across mice. Freezing behavior during the baseline period as well as during each tone presentation (“during”) and trace interval (“post”) were assessed as previously described (Zelikowsky et al., 2014; incorporated by reference in its entirety) using automated near-infrared video tracking equipment and computer software (VideoFreeze, Med Associates). Shock reactivity (motion, arbitrary units) was measured during the 2 second shock US as well as the 3 seconds immediately following.
Mice were administered the Nk3R antagonist osanetant (Axon Medchem, Axon 1533) either systemically or intra-brain region. Osanctant was dissolved in saline with 0.1% Tween 20 (vehicle). […] For microinfusions, guide cannulas were removed from mice and replaced with injector cannulas (Plastics One), which protruded 0.5 mm from the tip of the guide cannula. Injectors were attached to 5 μl Hamilton syringes with PE tubing (Plastics One) and mounted on a microinfusion pump (Harvard Apparatus) for controlled infusion of osanetant (0.3 μl vehicle with 375 ng dose per site injected over 6 minutes). […]

Nk3R [2] = target: T1, Nk3R; assay: Acoustic startle response, osanetant; format: in vivo; set-up: from tissue; host or cells: Living mice (wild-type C57Bl6/N males, Charles River); conditions: SIS mice; acute systemic osanetant; listed as Osanetant
Description: Mice were administered the Nk3R antagonist osanetant (Axon Medchem, Axon 1533) either systemically or intra-brain region. Osanctant was dissolved in saline with 0.1% Tween 20 (vehicle). For systemic administration mice received an intraperitoneal (i.p.) injection (5 mg/kg) 20 minutes prior to behavioral testing. For microinfusions, guide cannulas were removed from mice and replaced with injector cannulas (Plastics One), which protruded 0.5 mm from the tip of the guide cannula. Injectors were attached to 5 μl Hamilton syringes with PE tubing (Plastics One) and mounted on a microinfusion pump (Harvard Apparatus) for controlled infusion of osanetant (0.3 μl vehicle with 375 ng dose per site injected over 6 minutes). For experiments using systemic administration of clozapine-N-oxide (CNO), CNO (Enzo Life Sciences-Biomol, BML-NS105-0005) was dissolved in saline (9 g/L NaCl) and injected (i.p.) at 5 mg/kg for hM4DREADD silencing or 2 mg/kg for hM3DREADD activation 20 minutes prior to behavioral testing. CNO was also administered chronically in drinking water (0.5 mg CNO/100 ml water).

CC(=O)N(C)C1(c2ccccc2)CCN(CCC[C@]2(c3ccc(Cl)c(Cl)c3)CCCN(C(=O)c3ccccc3)C2)CC1 [osanetant, N-(1-{3-[(3R)-1-benzoyl-3-(3,4-dichlorophenyl)piperidin-3-yl]propyl}-4-phenylpiperidin-4-yl)-N-methylacetamide]
SIS-induced increased shock reactivity (Nk3R [1]; SIS mice, osanetant 5 mg/kg i.p. 20 min before test): blocked | SIS-induced increase in shock reactivity (Nk3R [1]; osanetant daily during two-week isolation, tested off-drug): a trend to protection; also recorded: reduced, but not significantly | reactivity to footshock (SIS-enhanced) (Nk3R [1]; osanetant injection into CeA): reduced; also recorded: blocked | responses to the footshock (Nk3R [1]; osanetant microinfusion into DMH): had no effect | shock reactivity (Nk3R [1]; osanetant microinfusion into dBNSTa): no effect | SIS-induced enhanced acoustic startle responding (Nk3R [2]): blocked; also recorded: attenuated
